Experimental data published in publication PMC5218480 (PLoS ONE, 2017).

System: MV-4-11 cells
Experiment: Gene expression microarray analysis (Affymetrix PrimeView) and GSEA
Format: cell-based, human
Set-up: RFU PODN (11730768_x_at) / Fold change /veh PODN (11730768_x_at) / RFU LINC00158 (11744669_a_at) / Fold change /veh LINC00158 (11744669_a_at) / RFU DUSP10 (11751237_a_at) / Fold change /veh DUSP10 (11751237_a_at) / RFU ID3 (11757404_x_at) / Fold change /veh ID3 (11757404_x_at) / RFU PLEKHG5 (11737974_s_at) / Fold change /veh PLEKHG5 (11737974_s_at) / RFU LRRC4B (11730491_at) / Fold change /veh LRRC4B (11730491_at) / RFU GIMAP4 (11747438_a_at) / Fold change /veh GIMAP4 (11747438_a_at) / RFU KRT8 (11758183_x_at) / Fold change /veh KRT8 (11758183_x_at) / RFU CNN1 (11734310_a_at) / Fold change /veh CNN1 (11734310_a_at) / RFU VPS37D (11726825_at) / Fold change /veh VPS37D (11726825_at) / RFU C10orf10 (11716522_x_at) / Fold change /veh C10orf10 (11716522_x_at) / RFU KIR2DL2 /// KIR2DL4 /// KIR2DL5A /// KIR2DL5B /// KIR2DS1 /// KIR2DS2 /// KIR2DS3 /// KIR2DS4 /// KIR3DL3 /// KIR3DL3 /// KIR3DS1 (11738374_at) / Fold change /veh KIR2DL2 /// KIR2DL4 /// KIR2DL5A /// KIR2DL5B /// KIR2DS1 /// KIR2DS2 /// KIR2DS3 /// KIR2DS4 /// KIR3DL3 /// KIR3DL3 /// KIR3DS1 (11738374_at) / RFU C1QL1 (11718748_at) / Fold change /veh C1QL1 (11718748_at) / RFU TMPRSS4 (11747572_a_at) / Fold change /veh TMPRSS4 (11747572_a_at) / RFU HAMP (11756126_x_at) / Fold change /veh HAMP (11756126_x_at) / RFU RNFT2 (11725882_a_at) / Fold change /veh RNFT2 (11725882_a_at) / RFU NR4A2 (11747474_a_at) / Fold change /veh NR4A2 (11747474_a_at) / RFU ABCC12 (11746883_a_at) / Fold change /veh ABCC12 (11746883_a_at) / RFU TMEM136 (11760407_x_at) / Fold change /veh TMEM136 (11760407_x_at) / RFU CLDN22 /// WWC2 (11732394_at) / Fold change /veh CLDN22 /// WWC2 (11732394_at) / RFU HLA-DPB1 (11760878_x_at) / Fold change /veh HLA-DPB1 (11760878_x_at) / RFU SPINT1 (11716480_a_at) / Fold change /veh SPINT1 (11716480_a_at) / RFU GAP43 (11754022_s_at) / Fold change /veh GAP43 (11754022_s_at) / RFU A4GNT (11735810_at) / Fold change /veh A4GNT (11735810_at) / RFU PRB3 (11715151_x_at) / Fold change /veh PRB3 (11715151_x_at) / RFU TUBB4B (11761932_at) / Fold change /veh TUBB4B (11761932_at) / RFU CAPN14 (11732068_a_at) / Fold change /veh CAPN14 (11732068_a_at) / RFU TMCC2 (11721928_a_at) / Fold change /veh TMCC2 (11721928_a_at) / RFU IRGQ (11745062_a_at) / Fold change /veh IRGQ (11745062_a_at) / RFU FAM174B (11720279_a_at) / Fold change /veh FAM174B (11720279_a_at) / RFU TMPRSS4 (11748680_a_at) / Fold change /veh TMPRSS4 (11748680_a_at) / RFU FAM212B (11763350_a_at) / Fold change /veh FAM212B (11763350_a_at) / RFU PLEKHG5 (11743358_a_at) / Fold change /veh PLEKHG5 (11743358_a_at) / RFU ZSCAN30 (11745921_a_at) / Fold change /veh ZSCAN30 (11745921_a_at) / RFU CMKLR1 (11741424_a_at) / Fold change /veh CMKLR1 (11741424_a_at) / RFU LOC101060620 /// MAPK8IP1 (11723275_at) / Fold change /veh LOC101060620 /// MAPK8IP1 (11723275_at) / RFU SPTSSB (11747773_x_at) / Fold change /veh SPTSSB (11747773_x_at) / RFU PRSS12 (11739890_at) / Fold change /veh PRSS12 (11739890_at) / RFU BIN1 (11741810_x_at) / Fold change /veh BIN1 (11741810_x_at) / RFU WNT11 (11732464_a_at) / Fold change /veh WNT11 (11732464_a_at) / RFU C10orf10 (11716521_a_at) / Fold change /veh C10orf10 (11716521_a_at) / RFU C5orf56 (11738089_at) / Fold change /veh C5orf56 (11738089_at) / RFU CYB561 (11721691_x_at) / Fold change /veh CYB561 (11721691_x_at) / RFU ANKRD19P (11752326_a_at) / Fold change /veh ANKRD19P (11752326_a_at) / RFU OR2T12 /// OR2T33 /// OR2T8 (11738714_s_at) / Fold change /veh OR2T12 /// OR2T33 /// OR2T8 (11738714_s_at) / RFU VCAN (11748164_a_at) / Fold change /veh VCAN (11748164_a_at) / RFU JSRP1 (11732532_at) / Fold change /veh JSRP1 (11732532_at) / RFU KRTAP10-11 (11738290_x_at) / Fold change /veh KRTAP10-11 (11738290_x_at) / RFU MYO3A (11730013_a_at) / Fold change /veh MYO3A (11730013_a_at) / RFU EBF3 (11725865_a_at) / Fold change /veh EBF3 (11725865_a_at) / RFU CAMK2N1 (11719241_x_at) / Fold change /veh CAMK2N1 (11719241_x_at) / RFU C5orf56 (11738088_a_at) / Fold change /veh C5orf56 (11738088_a_at) / RFU OLFML3 (11715873_a_at) / Fold change /veh OLFML3 (11715873_a_at) / RFU LOC100653217 /// NTM (11731650_a_at) / Fold change /veh LOC100653217 /// NTM (11731650_a_at) / RFU MAPK11 (11762145_a_at) / Fold change /veh MAPK11 (11762145_a_at) / RFU FIZ1 (11724087_x_at) / Fold change /veh FIZ1 (11724087_x_at) / RFU OASL (11726364_x_at) / Fold change /veh OASL (11726364_x_at) / RFU SOX15 (11748057_x_at) / Fold change /veh SOX15 (11748057_x_at) / RFU CD79A (11719716_a_at) / Fold change /veh CD79A (11719716_a_at) / RFU HIST1H1D (11736915_at) / Fold change /veh HIST1H1D (11736915_at) / RFU CASKIN2 (11723855_a_at) / Fold change /veh CASKIN2 (11723855_a_at) / RFU LOC730098 (11760151_x_at) / Fold change /veh LOC730098 (11760151_x_at) / RFU OR4N2 (11742367_at) / Fold change /veh OR4N2 (11742367_at) / RFU PRRT2 (11749266_a_at) / Fold change /veh PRRT2 (11749266_a_at) / RFU SNX32 (11753110_a_at) / Fold change /veh SNX32 (11753110_a_at) / RFU CDHR5 (11726645_a_at) / Fold change /veh CDHR5 (11726645_a_at) / RFU RCAN1 (11760418_a_at) / Fold change /veh RCAN1 (11760418_a_at) / RFU FAM167A (11723789_a_at) / Fold change /veh FAM167A (11723789_a_at) / RFU FAM26E (11764081_at) / Fold change /veh FAM26E (11764081_at) / RFU ISYNA1 (11749810_s_at) / Fold change /veh ISYNA1 (11749810_s_at) / RFU ACY1 (11761880_at) / Fold change /veh ACY1 (11761880_at) / RFU 11764098_at / Fold change /veh 11764098_at / RFU SAMD14 (11745864_x_at) / Fold change /veh SAMD14 (11745864_x_at) / RFU NPB (11741838_a_at) / Fold change /veh NPB (11741838_a_at) / RFU TMPRSS6 (11731388_a_at) / Fold change /veh TMPRSS6 (11731388_a_at) / RFU KRTAP10-2 (11738614_at) / Fold change /veh KRTAP10-2 (11738614_at) / RFU ARHGAP8 /// PRR5-ARHGAP8 (11727945_x_at) / Fold change /veh ARHGAP8 /// PRR5-ARHGAP8 (11727945_x_at) / RFU KRTAP5-7 /// NADSYN1 (11734609_at) / Fold change /veh KRTAP5-7 /// NADSYN1 (11734609_at) / RFU RASL12 (11751679_a_at) / Fold change /veh RASL12 (11751679_a_at) / RFU CDKN2B (11736163_a_at) / Fold change /veh CDKN2B (11736163_a_at) / RFU PRF1 (11729649_at) / Fold change /veh PRF1 (11729649_at) / RFU, ZNF638 /// ZNF638-IT1 / Fold change vs veh, ZNF638 /// ZNF638-IT1 / RFU, PANK3 / Fold change vs veh, PANK3 / RFU, SH3YL1 / Fold change vs veh, SH3YL1 / RFU, ZEB2 / Fold change vs veh, ZEB2 / RFU, NRIP1 / Fold change vs veh, NRIP1 / RFU, PTTG1IP / Fold change vs veh, PTTG1IP / RFU, CAPN2 / Fold change vs veh, CAPN2 / RFU, MED14 / Fold change vs veh, MED14 / RFU, SNORA58 / Fold change vs veh, SNORA58 / RFU, C1orf63 / Fold change vs veh, C1orf63 / RFU, LRRFIP1 / Fold change vs veh, LRRFIP1 / RFU, NDUFAF7 / Fold change vs veh, NDUFAF7 / RFU, SLC12A2 / Fold change vs veh, SLC12A2 / RFU, IBTK / Fold change vs veh, IBTK / RFU, ESF1 / Fold change vs veh, ESF1 / Fold change vs veh, TMEM50B / RFU, TAOK1 / Fold change vs veh, TAOK1 / RFU, ACBD3 / Fold change vs veh, ACBD3 / RFU, TMA16 / Fold change vs veh, TMA16 / RFU, RWDD3 / Fold change vs veh, RWDD3 / RFU, BCAT1 / Fold change vs veh, BCAT1 / RFU, EDEM3 / Fold change vs veh, EDEM3 / RFU, TMEM33 / Fold change vs veh, TMEM33 / RFU, WDR75 / Fold change vs veh, WDR75 / RFU, AHCTF1 / Fold change vs veh, AHCTF1 / RFU, TFRC / Fold change vs veh, TFRC / RFU, ZDHHC17 / Fold change vs veh, ZDHHC17 / RFU, NOM1 / Fold change vs veh, NOM1 / RFU, ARL8B / Fold change vs veh, ARL8B / RFU, ZBTB11 / Fold change vs veh, ZBTB11 / RFU, TAMM41 / Fold change vs veh, TAMM41 / RFU, KIAA1704 /// LOC100996395 / Fold change vs veh, KIAA1704 /// LOC100996395 / RFU, ING1 / Fold change vs veh, ING1 / RFU, TRMT61B / Fold change vs veh, TRMT61B / RFU, FUBP3 / Fold change vs veh, FUBP3 / RFU, TP53 / Fold change vs veh, TP53 / RFU, TNKS2 / Fold change vs veh, TNKS2 / RFU, ZFP14 / Fold change vs veh, ZFP14 / RFU, ACTR2 / Fold change vs veh, ACTR2 / RFU, PPP3R1 / Fold change vs veh, PPP3R1 / RFU, PIK3R1 / Fold change vs veh, PIK3R1 / RFU, HNRNPA1 / Fold change vs veh, HNRNPA1 / RFU, RNF170 / Fold change vs veh, RNF170 / RFU, ZNF28 / Fold change vs veh, ZNF28 / RFU, RNGTT / Fold change vs veh, RNGTT / RFU, OGT / Fold change vs veh, OGT / RFU, BRD1 / Fold change vs veh, BRD1 / RFU, MARS / Fold change vs veh, MARS / RFU, ZNF655 / Fold change vs veh, ZNF655 / RFU, FAHD1 / Fold change vs veh, FAHD1 / RFU, BDP1 / Fold change vs veh, BDP1 / RFU, LRRCC1 / Fold change vs veh, LRRCC1 / RFU, ARID1A / Fold change vs veh, ARID1A / RFU, ZNF146 / Fold change vs veh, ZNF146 / RFU, ZNF330 / Fold change vs veh, ZNF330 / RFU, GPN3 / Fold change vs veh, GPN3 / RFU, C9orf123 / Fold change vs veh, C9orf123 / RFU, N4BP2L2 / Fold change vs veh, N4BP2L2 / RFU, ARFIP1 / Fold change vs veh, ARFIP1 / RFU, FAM179B / Fold change vs veh, FAM179B / RFU, BCL10 / Fold change vs veh, BCL10 / RFU, UHRF1BP1L / Fold change vs veh, UHRF1BP1L / RFU, BET1 / Fold change vs veh, BET1 / RFU, CNOT2 / Fold change vs veh, CNOT2 / RFU, ZNF268 / Fold change vs veh, ZNF268 / Fold change vs veh, ZNF507 / RFU, DGCR2 / Fold change vs veh, DGCR2 / RFU, WDSUB1 / Fold change vs veh, WDSUB1 / Fold change vs veh, HSP90B1 /// MIR3652 / RFU, ADSS / Fold change vs veh, ADSS / RFU, GK / Fold change vs veh, GK / RFU, ZNF148 / Fold change vs veh, ZNF148 / RFU, TAF9 / Fold change vs veh, TAF9 / RFU, SLC1A5 / Fold change vs veh, SLC1A5 / RFU, SLMO2 / Fold change vs veh, SLMO2 / RFU, ABCC4 / Fold change vs veh, ABCC4 / RFU, LOC101060439 /// RAP1B / Fold change vs veh, LOC101060439 /// RAP1B / RFU, RFX7 / Fold change vs veh, RFX7 / RFU, GTPBP10 / Fold change vs veh, GTPBP10 / RFU, CNEP1R1 / Fold change vs veh, CNEP1R1 / RFU, BIVM-ERCC5 /// ERCC5 / Fold change vs veh, BIVM-ERCC5 /// ERCC5 / RFU, ILF3 / Fold change vs veh, ILF3 / RFU 11762660_at / Fold change /veh 11762660_at / RFU VCAN (11757783_s_at) / Fold change /veh VCAN (11757783_s_at) / RFU DDX43 (11728927_at) / Fold change /veh DDX43 (11728927_at) / RFU KRT8 (11758188_x_at) / Fold change /veh KRT8 (11758188_x_at) / RFU NKD1 (11759106_at) / Fold change /veh NKD1 (11759106_at) / RFU SRD5A1 (11742802_a_at) / Fold change /veh SRD5A1 (11742802_a_at) / RFU TPSAB1 /// TPSB2 (11721975_s_at) / Fold change /veh TPSAB1 /// TPSB2 (11721975_s_at) / RFU GSTM3 (11746129_a_at) / Fold change /veh GSTM3 (11746129_a_at) / RFU IL23R (11737362_x_at) / Fold change /veh IL23R (11737362_x_at) / RFU TMEM51 (11727254_a_at) / Fold change /veh TMEM51 (11727254_a_at) / RFU PIWIL2 (11732686_x_at) / Fold change /veh PIWIL2 (11732686_x_at) / RFU ORM1 (11744905_x_at) / Fold change /veh ORM1 (11744905_x_at) / RFU CCDC152 (11743942_at) / Fold change /veh CCDC152 (11743942_at) / RFU ECM1 (11717891_a_at) / Fold change /veh ECM1 (11717891_a_at) / RFU IL23R (11748794_a_at) / Fold change /veh IL23R (11748794_a_at) / RFU TNFAIP8L3 (11732012_x_at) / Fold change /veh TNFAIP8L3 (11732012_x_at) / RFU MBOAT4 (11741988_at) / Fold change /veh MBOAT4 (11741988_at) / RFU 11764193_at / Fold change /veh 11764193_at / RFU TMEM53 (11763286_at) / Fold change /veh TMEM53 (11763286_at) / RFU MAGEB2 (11727129_at) / Fold change /veh MAGEB2 (11727129_at) / RFU TMEM200A (11744735_a_at) / Fold change /veh TMEM200A (11744735_a_at) / RFU CCDC152 (11751479_a_at) / Fold change /veh CCDC152 (11751479_a_at) / RFU FAM211A (11726209_a_at) / Fold change /veh FAM211A (11726209_a_at) / RFU RGS16 (11746705_a_at) / Fold change /veh RGS16 (11746705_a_at) / RFU VCAN (11755009_s_at) / Fold change /veh VCAN (11755009_s_at) / RFU RHOB (11743442_s_at) / Fold change /veh RHOB (11743442_s_at) / RFU RGS16 (11720943_a_at) / Fold change /veh RGS16 (11720943_a_at) / RFU RGS16 (11720944_at) / Fold change /veh RGS16 (11720944_at) / RFU, VPS4B / Fold change vs veh, VPS4B / RFU, CREB1 / Fold change vs veh, CREB1 / RFU, DNAJC13 / Fold change vs veh, DNAJC13 / RFU, GNAQ / Fold change vs veh, GNAQ / RFU, CDK5R1 / Fold change vs veh, CDK5R1 / RFU, ZRANB3 / Fold change vs veh, ZRANB3 / RFU, CUL4A / Fold change vs veh, CUL4A / RFU, CCNY / Fold change vs veh, CCNY / RFU, UFL1 / Fold change vs veh, UFL1 / RFU, COG3 / Fold change vs veh, COG3 / RFU, DIAPH2 / Fold change vs veh, DIAPH2 / RFU, SKA2 / Fold change vs veh, SKA2 / RFU, AFF3 / Fold change vs veh, AFF3 / RFU, LMF1 / Fold change vs veh, LMF1 / RFU, IPO11 / Fold change vs veh, IPO11 / RFU, DFFB / Fold change vs veh, DFFB / RFU, FOXP1 / Fold change vs veh, FOXP1 / RFU, CARD8 / Fold change vs veh, CARD8 / RFU, STRN3 / Fold change vs veh, STRN3 / RFU, ADK / Fold change vs veh, ADK / RFU, RASSF2 / Fold change vs veh, RASSF2 / RFU, WIPF1 / Fold change vs veh, WIPF1 / RFU, LARP1B / Fold change vs veh, LARP1B / RFU, RASA1 / Fold change vs veh, RASA1 / RFU, RB1 / Fold change vs veh, RB1 / RFU, PPFIA1 / Fold change vs veh, PPFIA1 / RFU, MAT2A / Fold change vs veh, MAT2A / RFU, CCT5 / Fold change vs veh, CCT5 / RFU, WDR92 / Fold change vs veh, WDR92 / RFU, CUX1 / Fold change vs veh, CUX1 / RFU, TTC7A / Fold change vs veh, TTC7A / RFU, TMEM135 / Fold change vs veh, TMEM135 / RFU, DEPTOR / Fold change vs veh, DEPTOR / RFU, CPM / Fold change vs veh, CPM / RFU, DNAJB6 / Fold change vs veh, DNAJB6 / RFU, CACNA2D3 / Fold change vs veh, CACNA2D3 / RFU, DTX4 / Fold change vs veh, DTX4 / RFU, TFCP2 / Fold change vs veh, TFCP2 / RFU, GMCL1 /// GMCL1P1 / Fold change vs veh, GMCL1 /// GMCL1P1 / RFU, AEBP2 / Fold change vs veh, AEBP2 / RFU, SNHG1 /// SNORD22 /// SNORD25 /// SNORD26 /// SNORD27 /// SNORD28 /// SNORD29 /// SNORD31 / Fold change vs veh, SNHG1 /// SNORD22 /// SNORD25 /// SNORD26 /// SNORD27 /// SNORD28 /// SNORD29 /// SNORD31 / Fold change (Aza/veh), C12orf56 (ProbeSet 11735607_a_at) / Fold change (ACY-1035/veh), C12orf56 (ProbeSet 11735607_a_at) / Fold change (Aza/veh), FGFR1OP (ProbeSet 11751329_s_at) / Fold change (ACY-1035/veh), FGFR1OP (ProbeSet 11751329_s_at) / Fold change (Aza/veh), VPS36 (ProbeSet 11739960_a_at) / Fold change (ACY-1035/veh), VPS36 (ProbeSet 11739960_a_at) / RFU SYPL1 (11715823_x_at) / Fold change /veh SYPL1 (11715823_x_at) / RFU IGFBP7 (11715501_s_at) / Fold change /veh IGFBP7 (11715501_s_at) / RFU REEP3 (11722064_at) / Fold change /veh REEP3 (11722064_at) / RFU IGLL1 (11728026_x_at) / Fold change /veh IGLL1 (11728026_x_at): dose or concentration left out as unconfirmed
Conditions: ProbeSet 11743882_a_at; LIST D

Nc1ncn([C@@H]2O[C@H](CO)[C@@H](O)[C@H]2O)c(=O)n1 [azacitidine] was tested, and the “Fold change vs veh, STRN3” value was 0.74.
